Test results: patent US12247028B2, “Azabicyclo and diazepine derivatives” (Alcon Inc., priority 2017, dated 2025)
pKi: −log10 of the molar value. Like-named read-outs stand apart in the source and are kept apart here.

Key:
[1] = target: T1, Human muscarinic receptor M4 (Homo sapiens, UniProt P08173); assay: Human muscarinic receptor assay M4, [3H]4-DAMP binding
T1 construct: host or cells: cell membrane homogenates
T1 sequence (P08173 1-479): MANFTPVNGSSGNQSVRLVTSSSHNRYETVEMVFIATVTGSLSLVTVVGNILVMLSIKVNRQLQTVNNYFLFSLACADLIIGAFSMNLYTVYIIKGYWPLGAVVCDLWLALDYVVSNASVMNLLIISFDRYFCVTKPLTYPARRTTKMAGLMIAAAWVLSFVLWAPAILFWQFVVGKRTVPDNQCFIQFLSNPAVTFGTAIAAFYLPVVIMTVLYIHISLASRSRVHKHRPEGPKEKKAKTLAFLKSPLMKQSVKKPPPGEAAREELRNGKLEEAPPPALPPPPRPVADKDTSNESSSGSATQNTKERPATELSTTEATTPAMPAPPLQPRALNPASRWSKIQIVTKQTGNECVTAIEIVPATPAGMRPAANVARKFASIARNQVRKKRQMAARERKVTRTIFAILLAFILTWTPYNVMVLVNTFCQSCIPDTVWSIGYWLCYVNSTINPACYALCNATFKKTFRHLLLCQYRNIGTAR
Protocol: (§1) Human Muscarinic Receptor Assay
(§2) Cell membrane homogenates (16 μg protein) are incubated for 60 min at 22° C. with 0.2 nM [3H]4-DAMP in the absence or presence of the test compound in a buffer containing 10 mM Tris-HCl (pH 7.4) and 2 mM EDTA. Nonspecific binding is determined in the presence of 1 μM atropine. Following incubation, the samples are filtered rapidly under vacuum through glass fiber filters (GF/B, Packard) presoaked with 0.3% PEI and rinsed several times with ice-cold 50 mM Tris-HCl using a 96-sample cell harvester (Unifilter, Packard). The filters are dried then counted for radioactivity in a scintillation counter (Topcount, Packard) using a scintillation cocktail (Microscint 0, Packard). The results are expressed as a percent inhibition of the control radioligand specific binding. The standard reference compound is 4-DAMP, which is tested in each experiment at several concentrations to obtain a competition curve from which its Ki and IC50 are calculated.

[2] = target: T2, Human muscarinic receptor M5 (Homo sapiens, UniProt P08912); assay: Human muscarinic receptor assay M5, [3H]4-DAMP binding
T2 construct: host or cells: cell membrane homogenates
T2 sequence (P08912 1-532): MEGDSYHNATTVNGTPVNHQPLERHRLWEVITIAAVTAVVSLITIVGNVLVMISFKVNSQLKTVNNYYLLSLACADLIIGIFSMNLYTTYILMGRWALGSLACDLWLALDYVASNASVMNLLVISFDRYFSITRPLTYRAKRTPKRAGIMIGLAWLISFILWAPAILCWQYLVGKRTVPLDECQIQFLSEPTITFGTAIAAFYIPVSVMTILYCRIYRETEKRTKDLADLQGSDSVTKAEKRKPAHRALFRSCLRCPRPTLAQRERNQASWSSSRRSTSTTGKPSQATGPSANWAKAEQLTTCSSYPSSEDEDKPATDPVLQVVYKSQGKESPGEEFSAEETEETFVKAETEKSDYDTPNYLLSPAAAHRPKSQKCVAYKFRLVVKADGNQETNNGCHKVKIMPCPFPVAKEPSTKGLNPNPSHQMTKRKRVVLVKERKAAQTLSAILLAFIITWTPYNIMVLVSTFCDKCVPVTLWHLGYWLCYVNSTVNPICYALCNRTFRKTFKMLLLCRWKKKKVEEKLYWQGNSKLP
Protocol: as §1
as §2, with “(15” for “(16”, “0.3” for “0.2”

[3] = target: T3, Human muscarinic receptor M2 (Homo sapiens, UniProt P08172); assay: Human muscarinic receptor assay M2, [3H]AF-DX 384 binding; conditions: for inhibition at 1 µM: read-out: percent inhibition of the control radioligand specific binding, M2
T3 construct: host or cells: cell membrane homogenates
T3 sequence (P08172 1-466): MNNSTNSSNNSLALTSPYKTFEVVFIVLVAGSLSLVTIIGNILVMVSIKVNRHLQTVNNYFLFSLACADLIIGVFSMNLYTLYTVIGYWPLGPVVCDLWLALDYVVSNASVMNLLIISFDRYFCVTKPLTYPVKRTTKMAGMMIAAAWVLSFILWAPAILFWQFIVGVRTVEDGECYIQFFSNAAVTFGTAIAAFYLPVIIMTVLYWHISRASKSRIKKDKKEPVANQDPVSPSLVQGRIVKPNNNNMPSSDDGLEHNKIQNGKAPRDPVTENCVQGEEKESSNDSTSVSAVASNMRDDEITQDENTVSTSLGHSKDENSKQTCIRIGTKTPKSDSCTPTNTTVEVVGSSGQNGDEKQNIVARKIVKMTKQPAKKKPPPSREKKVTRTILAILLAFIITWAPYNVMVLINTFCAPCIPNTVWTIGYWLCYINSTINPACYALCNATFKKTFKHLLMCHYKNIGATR
Protocol: as §1
(§3) Cell membrane homogenates (60 μg protein) are incubated for 60 min at 22° C. with 2 nM [3H]AF-DX 384 in the absence or presence of the test compound in a buffer containing 50 mM Tris-HCl (pH 7.4), 120 mM NaCl, 5 mM KCl, 5 mM MgCl2 and 1 mM EDTA. Nonspecific binding is determined in the presence of 1 μM atropine. Following incubation, the samples are filtered rapidly under vacuum through glass fiber filters (GF/B, Packard) presoaked with 0.3% PEI and rinsed several times with ice-cold 50 mM Tris-HCl using a 96-sample cell harvester (Unifilter, Packard). The filters are dried then counted for radioactivity in a scintillation counter (Topcount, Packard) using a scintillation cocktail (Microscint 0, Packard). The results are expressed as a percent inhibition of the control radioligand specific binding. The standard reference compound is methoctramine, which is tested in each experiment at several concentrations to obtain a competition curve from which its Ki and IC50 are calculated.

[4] = target: T4, Human muscarinic receptor M3 (Homo sapiens, UniProt P20309); assay: Human muscarinic receptor assay M3, [3H]4-DAMP binding; conditions: for pKi: 0.2 nM [3H]4-DAMP, cell membrane homogenates
T4 construct: host or cells: cell membrane homogenates
T4 sequence (P20309 whole entry): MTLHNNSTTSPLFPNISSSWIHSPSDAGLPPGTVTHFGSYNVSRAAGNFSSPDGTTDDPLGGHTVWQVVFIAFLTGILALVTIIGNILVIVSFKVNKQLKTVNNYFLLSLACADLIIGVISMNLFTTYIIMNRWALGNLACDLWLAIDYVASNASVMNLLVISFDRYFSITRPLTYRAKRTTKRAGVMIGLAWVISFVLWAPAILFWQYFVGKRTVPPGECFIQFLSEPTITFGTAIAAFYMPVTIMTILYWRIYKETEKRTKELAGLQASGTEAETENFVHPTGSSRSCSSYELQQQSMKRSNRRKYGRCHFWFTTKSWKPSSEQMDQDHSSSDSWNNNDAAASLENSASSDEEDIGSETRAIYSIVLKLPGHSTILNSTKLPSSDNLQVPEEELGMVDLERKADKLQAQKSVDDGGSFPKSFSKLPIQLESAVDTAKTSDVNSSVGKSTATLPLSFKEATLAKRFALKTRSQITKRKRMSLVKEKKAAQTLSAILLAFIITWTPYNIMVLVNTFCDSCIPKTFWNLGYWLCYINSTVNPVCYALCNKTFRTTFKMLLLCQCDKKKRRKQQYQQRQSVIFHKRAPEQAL
Protocol: as §1
as §2, with “(8” for “(16”

[5] = target: T5, Human muscarinic receptor M1 (Homo sapiens, UniProt P11229); assay: Human muscarinic receptor assay M1, [3H]pirenzepine binding; conditions: 2 nM [3H]pirenzepine, cell membrane homogenates
T5 construct: host or cells: cell membrane homogenates
T5 sequence (P11229 1-460): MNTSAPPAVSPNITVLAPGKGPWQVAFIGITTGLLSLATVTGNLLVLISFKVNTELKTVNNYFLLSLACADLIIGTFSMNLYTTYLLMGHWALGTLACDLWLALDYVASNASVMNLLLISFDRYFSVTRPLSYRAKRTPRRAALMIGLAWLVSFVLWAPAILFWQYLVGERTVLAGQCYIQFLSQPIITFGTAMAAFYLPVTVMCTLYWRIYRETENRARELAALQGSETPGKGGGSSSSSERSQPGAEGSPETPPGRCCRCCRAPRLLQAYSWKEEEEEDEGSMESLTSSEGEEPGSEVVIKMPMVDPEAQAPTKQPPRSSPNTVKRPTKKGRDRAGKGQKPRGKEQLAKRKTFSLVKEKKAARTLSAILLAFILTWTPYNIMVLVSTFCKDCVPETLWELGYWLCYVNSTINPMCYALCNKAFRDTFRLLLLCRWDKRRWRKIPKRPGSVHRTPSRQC
Protocol: as §1
as §3, with “(45” for “(60”, “[3H]pirenzepine” for “[3H]AF-DX 384”, “pirenzepine,” for “methoctramine,”

[6] = topical 1% drop; cited from earlier work
[7] = 0.3 nM [3H]4-DAMP, cell membrane homogenates, read-out: Ki M5

Structure (SMILES) | pKi [1] | pKi [2] | pKi [3] | pKi [4] | pKi [5] | inhibition at 1 µM ([1]; read-out: percent inhibition of the control radioligand specific binding, M4) | pKi [2, 7] | inhibition at 1 µM [3] | pKi ([1]; 0.2 nM [3H]4-DAMP, cell membrane homogenates, read-out: Ki M4) | inhibition at 1 µM ([4]; @ 1 μM, read-out: percent inhibition of the control radioligand specific binding, M3) | efficacy in the treatment of myopia [6] | side effects [6] | pKi ([3]; 2 nM [3H]AF-DX 384, cell membrane homogenates, read-out: Ki M2)
CN1C2CCC1CC(OC(=O)C(C)(CO)c1cccs1)C2 (stereo not shown) | 9.41 | 9.15 | 8.10 | 9.11 | 8.60 | – | – | – | – | – | – | – | –
COc1ccc(CC(CO)(C(=O)OC2CC3CCC(C2)N3C)c2ccccc2)cc1 (stereo not shown) | – | – | – | 6.21 | 6.24 | < 50% | 6.49 | < 50% | – | – | – | – | –
CN1C2CCC1CC(OC(=O)C(CO)(Cc1ccccc1)c1ccccc1)C2 (stereo not shown) | – | – | – | – | 6.22 | – | 6.55 | < 50% | 6.64 | < 50% | – | – | –
CN1C2CCC1CC(OC(=O)C(CO)(CO)c1ccccc1)C2 (stereo not shown) | 8.52 | 8.35 | 7.27 | 8.39 | 7.77 | – | – | – | – | – | – | – | –
CN1C2CCC1CC(OC(=O)C(C)(CF)c1ccccc1)C2 (stereo not shown) | 8.24 | 8.14 | 6.96 | 7.85 | 7.57 | – | – | – | – | – | – | – | –
COCC(C)(C(=O)OC1CC2CCC(C1)N2C)c1ccccc1 (stereo not shown) | 8.13 | 8.07 | 7.14 | 7.89 | 7.72 | – | – | – | – | – | – | – | –
CN1C2CCC1CC(OC(=O)C(C)(CO)c1ccccc1)C2 (stereo not shown) | 9.24 | 9.17 | 7.96 | 8.70 | 8.51 | – | – | – | – | – | – | – | –
CN1C2CCC1CC(NC(=O)C(C)(CO)c1ccccc1)C2 (stereo not shown) | 7.08 | 7.28 | – | 6.82 | 6.64 | – | – | < 50% | – | – | – | – | –
CCC(CO)(C(=O)OC1CC2CCC(C1)N2C)c1ccccc1 (stereo not shown) | 9.15 | 8.96 | 7.46 | 8.89 | 8.36 | – | – | – | – | – | – | – | –
CN1[C@@H]2CC[C@H]1C[C@@H](OC(=O)C(CO)c1ccccc1)C2 (stereo partly shown) [atropine] | – | – | – | – | – | – | – | – | – | – | effective | numerous side effects were reported, including mydriasis (dilation of the pupil) and blurring of near vision due to cycloplegia | –
CN1C2CCC1CC(OC(=O)C(CO)(CC1CC1)c1ccccc1)C2 (stereo not shown) | 9.24 | 9.00 | 7.41 | 8.89 | 8.47 | – | – | – | – | – | – | – | –
CN1C2CCC1CC(OC(=O)C(CO)(Cc1ccc(F)cc1)c1ccccc1)C2 (stereo not shown) | 6.70 | 6.80 | – | 6.51 | 6.52 | – | – | < 50% | – | – | – | – | –
CN1C2CCC1CC(OC(=O)C(F)(CO)c1ccccc1)C2 (stereo not shown) | 9.32 | 9.15 | 7.82 | 8.54 | 8.46 | – | – | – | – | – | – | – | –
CN1C2CCC1CC(OC(=O)C(CO)(CC(F)(F)F)c1ccccc1)C2 (stereo not shown) | 8.77 | 8.72 | – | 8.70 | 8.09 | – | – | – | – | – | – | – | 6.62
